Target: PICK1 (protein interacting with kinase C1), PDZ domain (Homo sapiens, UniProt Q9NRD5)
Experiment: biochemical

Sequence of PICK1 (protein interacting with kinase C1), PDZ domain (Q9NRD5 1-357 limits assumed): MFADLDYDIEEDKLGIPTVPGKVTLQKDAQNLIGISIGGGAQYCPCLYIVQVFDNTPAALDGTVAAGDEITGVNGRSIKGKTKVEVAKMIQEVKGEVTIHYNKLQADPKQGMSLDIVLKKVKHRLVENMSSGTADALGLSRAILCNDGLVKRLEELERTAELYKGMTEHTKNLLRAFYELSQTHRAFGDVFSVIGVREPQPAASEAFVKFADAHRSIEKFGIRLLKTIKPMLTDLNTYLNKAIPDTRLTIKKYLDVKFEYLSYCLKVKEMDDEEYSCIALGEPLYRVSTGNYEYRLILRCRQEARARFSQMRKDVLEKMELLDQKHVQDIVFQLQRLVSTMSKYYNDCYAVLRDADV

- IC50: 513 nM
SMILES: CC(C)(C)OC(=O)N1CCC[C@H]1C(=O)N1CCC(C(=O)N[C@H](C(=O)O)C2CCCC2)(c2ccc(Br)cc2)CC1 [BIO124]
